Laboratory results reported in PubChem BioAssay (NCI).
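Cultured in 96-well plates, cells were exposed to test compound for 48 hours across five concentrations. TGI: concentration producing complete growth inhibition.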

Tests used:
Experiment in all cases: NCI tumour cell line growth inhibition, 48 h
TK-10 renal = test system: TK-10 renal
XF 498 CNS = test system: XF 498 CNS
SNB-19 CNS = test system: SNB-19 CNS
SK-OV-3 ovarian = test system: SK-OV-3 ovarian
A549 NSCLC = test system: A549 NSCLC
MOLT-4 leukemia = test system: MOLT-4 leukemia
UACC-62 melanoma = test system: UACC-62 melanoma
HOP-18 NSCLC = test system: HOP-18 NSCLC
OVCAR-3 ovarian = test system: OVCAR-3 ovarian
RPMI-8226 leukemia = test system: RPMI-8226 leukemia
UO-31 renal = test system: UO-31 renal
M19-MEL melanoma = test system: M19-MEL melanoma
HCT-15 colon = test system: HCT-15 colon
ACHN renal = test system: ACHN renal
COLO 205 colon = test system: COLO 205 colon
NCI-H23 lung = test system: NCI-H23 lung
HT29 colon = test system: HT29 colon
SK-MEL-5 melanoma = test system: SK-MEL-5 melanoma
K-562 leukemia = test system: K-562 leukemia
U251 CNS = test system: U251 CNS
SW-620 colon = test system: SW-620 colon
KM12 colon = test system: KM12 colon
IGROV1 ovarian = test system: IGROV1 ovarian
HOP-62 NSCLC = test system: HOP-62 NSCLC
DMS 273 small cell lung = test system: DMS 273 small cell lung
SF-295 CNS = test system: SF-295 CNS
EKVX NSCLC = test system: EKVX NSCLC
LOX IMVI melanoma = test system: LOX IMVI melanoma
DMS 114 small cell lung = test system: DMS 114 small cell lung
NCI-H522 lung = test system: NCI-H522 lung
SF-539 CNS = test system: SF-539 CNS
M14 melanoma = test system: M14 melanoma
SK-MEL-28 melanoma = test system: SK-MEL-28 melanoma
OVCAR-8 ovarian = test system: OVCAR-8 ovarian
KM20L2 colon = test system: KM20L2 colon
786-0 renal = test system: 786-0 renal
DLD-1 colon = test system: DLD-1 colon
SK-MEL-2 melanoma = test system: SK-MEL-2 melanoma
MALME-3M melanoma = test system: MALME-3M melanoma
SNB-75 CNS = test system: SNB-75 CNS
UACC-257 melanoma = test system: UACC-257 melanoma
NCI-H226 lung = test system: NCI-H226 lung
RXF 393 renal = test system: RXF 393 renal
SN12C renal = test system: SN12C renal
NCI-H460 lung = test system: NCI-H460 lung
HCC-2998 colon = test system: HCC-2998 colon
CAKI-1 renal = test system: CAKI-1 renal
SF-268 CNS = test system: SF-268 CNS
HCT-116 colon = test system: HCT-116 colon
LXFL 529 NSCLC = test system: LXFL 529 NSCLC
OVCAR-4 ovarian = test system: OVCAR-4 ovarian
OVCAR-5 ovarian = test system: OVCAR-5 ovarian
CCRF-CEM leukemia = test system: CCRF-CEM leukemia
SNB-78 CNS = test system: SNB-78 CNS
A498 renal = test system: A498 renal
HOP-92 NSCLC = test system: HOP-92 NSCLC
RXF-631 renal = test system: RXF-631 renal
HL-60(TB) leukemia = test system: HL-60(TB) leukemia
SR leukemia = test system: SR leukemia

Measured: TGI

CC1=C(C)C(=O)c2c(cc3c4ccccc4ccn23)C1=O
> 100 µM: TK-10 renal | XF 498 CNS | SNB-19 CNS | SK-OV-3 ovarian | A549 NSCLC | MOLT-4 leukemia | UACC-62 melanoma | HOP-18 NSCLC | OVCAR-3 ovarian | RPMI-8226 leukemia | UO-31 renal | M19-MEL melanoma | HCT-15 colon | ACHN renal | COLO 205 colon | NCI-H23 lung | HT29 colon | SK-MEL-5 melanoma | K-562 leukemia | U251 CNS | SW-620 colon | KM12 colon | IGROV1 ovarian | HOP-62 NSCLC | DMS 273 small cell lung | SF-295 CNS | EKVX NSCLC | LOX IMVI melanoma | DMS 114 small cell lung | NCI-H522 lung | SF-539 CNS | M14 melanoma | SK-MEL-28 melanoma | OVCAR-8 ovarian | KM20L2 colon | 786-0 renal | DLD-1 colon | SK-MEL-2 melanoma | MALME-3M melanoma | SNB-75 CNS | UACC-257 melanoma | NCI-H226 lung | RXF 393 renal | SN12C renal | NCI-H460 lung

COc1ccc(NC(=O)CSc2nnc(Cc3ccccc3)o2)cc1
> 100 µM: TK-10 renal | HCC-2998 colon | SNB-19 CNS | CAKI-1 renal | SK-OV-3 ovarian | A549 NSCLC | MOLT-4 leukemia | UACC-62 melanoma | HOP-18 NSCLC | OVCAR-3 ovarian | RPMI-8226 leukemia | UO-31 renal | M19-MEL melanoma | HCT-15 colon | ACHN renal | COLO 205 colon | NCI-H23 lung | SF-268 CNS | HCT-116 colon | HT29 colon | SK-MEL-5 melanoma | K-562 leukemia | U251 CNS | SW-620 colon | LXFL 529 NSCLC | KM12 colon | IGROV1 ovarian | HOP-62 NSCLC | DMS 273 small cell lung | SF-295 CNS | OVCAR-4 ovarian | OVCAR-5 ovarian | LOX IMVI melanoma | CCRF-CEM leukemia | DMS 114 small cell lung | NCI-H522 lung | SF-539 CNS | SNB-78 CNS | M14 melanoma | A498 renal | SK-MEL-28 melanoma | OVCAR-8 ovarian | KM20L2 colon | 786-0 renal | DLD-1 colon | SK-MEL-2 melanoma | MALME-3M melanoma | SNB-75 CNS | UACC-257 melanoma | NCI-H226 lung | RXF 393 renal | SN12C renal | NCI-H460 lung

S=C1CNC(=S)CN1
> 100 µM: TK-10 renal | HCC-2998 colon | SNB-19 CNS | CAKI-1 renal | SK-OV-3 ovarian | A549 NSCLC | MOLT-4 leukemia | UACC-62 melanoma | HOP-18 NSCLC | OVCAR-3 ovarian | RPMI-8226 leukemia | UO-31 renal | M19-MEL melanoma | HCT-15 colon | ACHN renal | COLO 205 colon | SF-268 CNS | HCT-116 colon | HT29 colon | SK-MEL-5 melanoma | HOP-92 NSCLC | RXF-631 renal | K-562 leukemia | U251 CNS | SW-620 colon | LXFL 529 NSCLC | KM12 colon | HL-60(TB) leukemia | IGROV1 ovarian | HOP-62 NSCLC | DMS 273 small cell lung | SF-295 CNS | OVCAR-4 ovarian | OVCAR-5 ovarian | LOX IMVI melanoma | CCRF-CEM leukemia | DMS 114 small cell lung | NCI-H522 lung | SF-539 CNS | SNB-78 CNS | M14 melanoma | A498 renal | SK-MEL-28 melanoma | OVCAR-8 ovarian | KM20L2 colon | 786-0 renal | DLD-1 colon | SR leukemia | SK-MEL-2 melanoma | MALME-3M melanoma | SNB-75 CNS | UACC-257 melanoma | NCI-H226 lung | RXF 393 renal | SN12C renal | NCI-H460 lung

OCC1OC(n2ccc3cnccc32)CC1O (stereo not drawn)
> 100 µM: TK-10 renal | HCC-2998 colon | SNB-19 CNS | CAKI-1 renal | SK-OV-3 ovarian | A549 NSCLC | MOLT-4 leukemia | UACC-62 melanoma | HOP-18 NSCLC | OVCAR-3 ovarian | RPMI-8226 leukemia | UO-31 renal | M19-MEL melanoma | HCT-15 colon | ACHN renal | COLO 205 colon | NCI-H23 lung | HCT-116 colon | HT29 colon | SK-MEL-5 melanoma | HOP-92 NSCLC | K-562 leukemia | U251 CNS | SW-620 colon | LXFL 529 NSCLC | KM12 colon | HL-60(TB) leukemia | IGROV1 ovarian | HOP-62 NSCLC | DMS 273 small cell lung | SF-295 CNS | OVCAR-4 ovarian | OVCAR-5 ovarian | EKVX NSCLC | LOX IMVI melanoma | CCRF-CEM leukemia | DMS 114 small cell lung | NCI-H522 lung | SF-539 CNS | SNB-78 CNS | M14 melanoma | A498 renal | SK-MEL-28 melanoma | OVCAR-8 ovarian | 786-0 renal | DLD-1 colon | SR leukemia | SK-MEL-2 melanoma | MALME-3M melanoma | SNB-75 CNS | UACC-257 melanoma | NCI-H226 lung | SN12C renal | NCI-H460 lung
